Measured values as given in patent US20140343165A1, “PLANT PROTECTION AGENT” (priority 2010, published 2014).

What was measured:
Erwinia amylovora [1] = experiment: In vitro infection tests on apple blossoms; conditions: for Infested blossoms: 14 blossoms
Procedure: In these tests, streptomycin was used as a positive control.
The in vitro tests on apple blossoms represented the natural course of infection and were conducted as follows: blooming apple blossoms were cut and further cultivated standing in a sterile sugar solution in transparent plastic containers. […] Following another 35 hours of incubation, the blossoms were wet by spraying on water. The infection rate was determined after 8 to 10 days of incubation at 22° C. and 70% relative humidity.

Erwinia amylovora [2] = experiment: Growth inhibition in in vitro suspension cultures (OD600 growth curves); type: cell-based; conditions: for Effect on growth of suspension culture: Example 2
Procedure: Streptomycin as a conventional agent against Erwinia amylovora was used as a positive control (see FIGS. 1A to 1D).
The specific members of the three different classes of quinones were uniformly pre-dissolved in ethanol to give a 1 mM solution and subsequently diluted to the respective final concentrations in culture medium. Corresponding controls were conducted with equal volumes of ethanol in the absence of agent (FIG. 4, “KE”). Attention was particularly focused on a low concentration rage of less than 100 μM, in which unspecific and weak antibacterial effects are no longer of significance.
In the present experiments, the Austrian Erwinia amylovora standard strain 295/93 (AGES) was employed.
(§1) Erwinia amylovora was inoculated into 5 ml of KB medium and cultivated over night at 28° C. and 200 rpm. This culture was diluted with KB medium to OD600=0.3 and 2 ml thereof were further cultivated in sealed cuvettes in the presence of different agent concentrations immediately afterwards. […] Two controls were conducted: unchanged medium and medium with an ethanol concentration equal to that of the test preparations. The optical densities of the cultures OD600 were measured over time at predetermined intervals.

Erwinia amylovora [3] = experiment: Inoculation tests on pear fruits; type: in vivo
Excerpt: As opposed to the blossom system, this test has to be performed with lesions of the plant tissue. It is known that any results obtained with this system have a lower reproducibility and are harder to evaluate. The corresponding results are photographically documented in FIG. 3. Two different pear varieties were used.
The development of black necrotic lesions of the plant tissue and the formation of white bacterial slime (exsudate) were taken as criteria for evaluating the degree of infection.
Erwinia amylovora was inoculated into 5 ml KB medium and cultivated over night at 28° C. and 200 rpm. Upon reaching a cell density corresponding to OD600 (1:10 dilution)=0.17 to 0.20, 1 ml of the undiluted culture was centrifuged and the bacterial pellet was resuspended in PBS (phosphate buffered saline). Unripe pear fruits (July) obtained from the experimental plantation (Jedlersdorf, BOKU) were harvested, washed with water, dried and used for inoculation (EPPO protocol 2004). In the inoculation procedure, two holes each having a volume of about 10 μl were pierced into each fruit using a pipette tip. 10 μl of the test solution were pipetted into each of the hollows thus formed, followed by incubation of the fruits for 15 min. Upon absorption of the test solutions by the tissue, each lesion was inoculated with 10 μl of Erwinia amylovora, suspended in PBS. The direct inoculation of fruits that had not been treated with the agent before served as a positive control. In the negative control, sterile water was used instead of the agent solution. A 0.01 mM streptomycin solution was used as a positive control. The inoculated fruits were incubated for 3 to 7 days at 25° C. and 100% relative humidity.

[4] = system: apple blossoms (Smoothy and Idared); experiment: Phytotoxicity on apple blossoms and subsequent fruit development; type: in vivo, Malus x domestica; conditions: for Browning reaction on petals: Smoothy and Idared; for Fruit russeting: all tested concentrations
Procedure: (§2) . In this test, the respective concentrations were employed that had been proven as completely effective (no bacterial growth) in the in vitro suspension cultures. […]. […] The maximum final concentrations of the solvent ethanol in the treatment solutions were 5%; corresponding control treatments were conducted with 0.5 or 5% ethanol in water. For each variant (agent, concentration, variety), two of the larger branches were treated. The test were conducted in the experimental fruit plantation of the University of Agriculture in Jedlersdorf, Austria. The trees of each series were of identical age as well as developmental and observable physiological state. The treatments were conducted in the morning between 8:00 and 9:30 at a relative humidity of 68 to 75% and temperatures of 12 to 13° C. On all days of treatment, the sprayed blossoms were directly exposed to sunlight afterwards. Phytotoxic effects were evaluated on the days following treatment. During the following months, fruit set and development was observed and compared to that of the control plants. In the evaluation, attention was particularly focused on visible alterations of the fruit epidermis.

[5] = system: pear blossoms (Williams Christ); experiment: Phytotoxicity on pear blossoms and subsequent fruit development; type: in vivo, Pyrus communis; conditions: for Browning reaction on petals: Williams Christ; for Fruit russeting: all tested concentrations
Procedure: as §2

Erwinia amylovora [6] = experiment: Bacteriostatic versus bactericidal effect: plating aliquots of suspension cultures onto agent-free solid medium; type: cell-based; conditions: for Colony formation of surviving cells after plating: already after 30 min
Procedure: This may be determined by means of plating aliquots of the suspension cultures containing the agent onto agent-free solid media. […] A culture blended with a corresponding volume of the solvent for juglone (ethanol) served as a control. […]. […] Aliquots of the suspension culture having an equivalent ethanol concentration were withdrawn and plated to serve as a control. After two days of incubating the plates at 25° C., the respective colony formation was documented.

Erwinia carotovora = experiment: Growth inhibition in suspension culture; type: cell-based
Procedure: Various other species of Erwinia are also important phytopathogens. The bacterium Erwinia carotovora was selected as an example of a further Erwinia species.
as §1

bees = conditions: on contact or by ingestion
[7] = concentration not given, curative

In the case of `O=C1C=CC(=O)C=C1` [Benzoquinone, 1,4-benzoquinone], the phyotoxic (Erwinia amylovora [1]; 0.01 mM, apple blossoms) is reported as “no”, the “Degree of efficacy (%)” value (Erwinia amylovora [1]; 0.01 mM, curative) is reported as 33% and the “Infestation (%)” value (Erwinia amylovora [1]; 0.01 mM, curative) is reported as 57%. For the same compound, the Infested blossoms (Erwinia amylovora [1]; 0.01 mM, curative) was 8, the phyotoxic (Erwinia amylovora [1]; 0.05 mM, apple blossoms) was “yes” and the “Degree of efficacy (%)” value (Erwinia amylovora [1]; 0.05 mM, curative) was 42%. For the same compound, the “Infestation (%)” value (Erwinia amylovora [1]; 0.05 mM, curative) was 50% and the Infested blossoms (Erwinia amylovora [1]; 0.05 mM, curative) was 7.

In the case of `O=C1C=CC(=O)c2c(O)cccc21` [Juglone], the “Effect on growth of suspension culture” value (Erwinia amylovora [2]; 5 μM) is reported as “growth occurs after a prolonged incubation period”, the “Effect on growth of suspension culture” value (Erwinia amylovora [2]; 10 μM (1.74 mg/1)) is reported as “completely bactericidal effect” and the “Effect on growth of suspension culture” value (Erwinia amylovora [2]; 50 μM, 5% ethanol in medium) is reported as “distinct effect”. The “Concentrations proven completely effective (no bacterial growth) in the in vitro suspension cultures” value (Erwinia amylovora [2]; suspension culture) was 0.005 to 0.05 mM, the “Activity against Erwinia amylovora (growth inhibition)” value (Erwinia amylovora [2]; suspension culture, compared with streptomycin) was “activity corresponding to that of streptomycin in a sub-millimolar concentration range” and the “Effect on infection of pear fruits” value (Erwinia amylovora [3]; 0.1 mM, pre-incubation 15 min before inoculation) was “effect approximately comparable to that of 0.01 mM streptomycin”. For the same compound, the “Browning reaction on petals” value ([4]; 0.025 mM) was “slightly brown spots”, the “Browning reaction on petals” value ([4]; 0.05 mM) was “more distinct spots” and the Fruit russeting [4] was “Neither the juglone nor the plumbagin treatments resulted in observable fruit russeting”. The “Browning reaction on petals” value ([5]; tested 0.005/0.01 mM) was “No effect”, the Fruit russeting [5] was “Neither the juglone nor the plumbagin treatments resulted in observable fruit russeting” and the “Colony formation of surviving cells after plating” value (Erwinia amylovora [6]; 0.01 mM in suspension culture) was “no colony formation of surviving cells after each prolonged incubation time”. The “Colony formation of surviving cells after plating” value (Erwinia amylovora [6]; 0.1 mM in suspension culture) was “no colony formation of surviving cells after each prolonged incubation time”, the Bactericidal effect (Erwinia amylovora [6]; conclusion of plating tests) was “strong bactericidal effect” and the “Growth in suspension culture” value (Erwinia carotovora; 0.1 mM) was “completely inhibited”. For the same compound, the “Growth in suspension culture” value (Erwinia carotovora; concentrations lower than 0.1 mM) was “not by lower concentrations”, the “Degree of efficacy (%)” value (Erwinia amylovora [1]; 0.005 mM, curative) was 58% and the “Infestation (%)” value (Erwinia amylovora [1]; 0.005 mM, curative) was 36%. For the same compound, the Infested blossoms (Erwinia amylovora [1]; 0.005 mM, curative) was 5, the “Degree of efficacy (%)” value (Erwinia amylovora [1]; 0.01 mM, curative) was 67% and the “Infestation (%)” value (Erwinia amylovora [1]; 0.01 mM, curative) was 29%. The Infested blossoms (Erwinia amylovora [1]; 0.01 mM, curative) was 4 and the Toxicity to bees (bees) was “non-toxic to bees on contact or by ingestion”.

For `CC1=CC(=O)c2c(O)cccc2C1=O` [Plumbagin, 5-hydroxy-2-methyl-1,4-naphthoquinone], the “Concentrations proven completely effective (no bacterial growth) in the in vitro suspension cultures” value (Erwinia amylovora [2]; suspension culture) was 0.1 to 0.5 mM, the “Browning reaction on petals” value ([4]; 0.1 mM) was “brown spots” and the “Browning reaction on petals” value ([4]; 0.5 mM, compared with 0.1 mM) was “more distinct”. For the same compound, the Fruit russeting [4] was “Neither the juglone nor the plumbagin treatments resulted in observable fruit russeting”, the “Browning reaction on petals” value ([5]; 0.1 mM) was “brown spots” and the “Browning reaction on petals” value ([5]; 0.5 mM, compared with 0.1 mM) was “more distinct”. The Fruit russeting [5] was “Neither the juglone nor the plumbagin treatments resulted in observable fruit russeting”, the “Degree of efficacy (%)” value (Erwinia amylovora [1]; 0.1 mM, curative) was 58% and the “Infestation (%)” value (Erwinia amylovora [1]; 0.1 mM, curative) was 36%. The Infested blossoms (Erwinia amylovora [1]; 0.1 mM, curative) was 5, the “Degree of efficacy (%)” value (Erwinia amylovora [1]; 0.5 mM, curative) was 50% and the “Infestation (%)” value (Erwinia amylovora [1]; 0.5 mM, curative) was 43%. The Infested blossoms (Erwinia amylovora [1]; 0.5 mM, curative) was 6.

In the case of `[H]/N=C(/N)N[C@H]1[C@H](O)[C@@H](O)[C@H](O[C@@H]2O[C@@H](C)[C@](O)(C=O)[C@H]2O[C@@H]2O[C@@H](CO)[C@H](O)[C@@H](O)[C@@H]2NC)[C@@H](N/C(N)=N\[H])[C@@H]1O` [Streptomycin, streptomycin], the Exsudate formation (Erwinia amylovora [3]; 0.01 mM) is reported as “no exsudate formation”, the Necrotic lesions (Erwinia amylovora [3]; 0.01 mM, Williams Christ and Bosc's Bottle Pear, versus inoculation without agent) is reported as “slightly diminished” and the Infested blossoms (Erwinia amylovora [1]; concentration not given, agent applied 2.5 h after Erwinia amylovora (curative)) is reported as 3. The “Degree of efficacy (%)” value (Erwinia amylovora [1]; [7]) was 75%, the “Infestation (%)” value (Erwinia amylovora [1]; [7]) was 21% and the phyotoxic (Erwinia amylovora [1]; in vivo) was “no”.
